Here are results for 6 compounds from publication PMC3235409 (Bioorganic & medicinal chemistry, 2011).

Experiment [1] concerns caspase-3/7 activity in HT29 cells. The experiment in a line: Caspase 3/7 activity assay. Type of experiment: cell-based, human. To be noted: HT29, 1.25 – 5 µM, 24 h.
In a further experiment the test system is HT29 cells. The experiment in a line: TUNEL assay. Type of experiment: cell-based, human. The following applies: HT29, 5 µM, 48 h.
The subject of experiment [2] is Akt (phospho-Akt and total Akt) in HT29 cells. Nature of the experiment: Western analysis of phospho-Akt and total Akt. It is filed as cell-based, human. The following applies: 24 h, Western blot; for effect on Akt expression and phosphorylation, 1 µM: HT29, 1 µM; for effect on Akt expression and phosphorylation: HT29, 1 or 2 µM (not specified).
Experiment [3] concerns purified bovine brain tubulin. The experiment in a line: Fluorescence-based tubulin polymerization assay. It is filed as biochemical. The following applies: 10 µM, cell-free.

Molecules are shown by their SMILES.

In the case of `N#C[Se]CCCN1C(=O)C(=O)c2cc(Br)cc(Br)c21` [Compound 5, 5,7-Dibromo-N-(3’-selenocyanatopropyl)isatin], the “caspase-3/7 activity relative to DMSO vehicle treated cells” value in experiment [1] was “significant dose dependent increases in caspase-3/7 activity”.

`O=C1C(=O)N(CCCN=C=S)c2c(Br)cc(Br)cc21` [Compound 6, 5,7-Dibromo-N-(3’-isothiocyanatopropyl)isatin]: the “caspase-3/7 activity relative to DMSO vehicle treated cells” value in experiment [1] is reported as “significant dose dependent increases in caspase-3/7 activity”. Besides, in the experiment with HT29 cells, the “TUNEL staining (DNA fragmentation)” value is “significant number of TUNEL-positive colon cancer cells”. Besides, the “effect on Akt expression and phosphorylation, 1 µM” value (“effect … 1 µM” below) in experiment [2] is on record as “very little effect on either expression or phosphorylation of Akt”. In addition, the “effect on Akt expression and phosphorylation, 2 µM” value in experiment [2] (HT29, 2 µM) is “both levels and phosphorylation state of Akt were reduced”.

In the case of `N#CSCc1ccc(CN2C(=O)C(=O)c3cc(Br)cc(Br)c32)cc1` [Compound 11, 5,7-Dibromo-N-(p-thiocyanomethylbenzyl)isatin], the “caspase-3/7 activity relative to DMSO vehicle treated cells” value in experiment [1] was “significant dose dependent increases in caspase-3/7 activity”. Moreover, in the experiment on HT29 cells, the “TUNEL staining (DNA fragmentation)” value is reported as “significant number of TUNEL-positive colon cancer cells”. Besides, in experiment [3] (1 h at 37 °C), the “inhibition of the rate of microtubule polymerization” value is “about 71%”. In addition, in experiment [2], the “effect … 1 µM” value is “reduced Akt protein levels and strongly suppressed the phosphorylation of Akt”; the “effect on Akt expression and phosphorylation” value was “Akt levels were reduced but the phosphorylation was virtually eliminated”.

For the compound `O=C1C(=O)N(Cc2ccc(CN=C=S)cc2)c2c(Br)cc(Br)cc21` [Compound 13, 5,7-Dibromo-N-(p-isothiocyanatomethylbenzyl)isatin], the “caspase-3/7 activity relative to DMSO vehicle treated cells” value in experiment [1] is “significant dose dependent increases in caspase-3/7 activity”. In addition, in experiment [2], the “effect … 1 µM” value is “reduced Akt protein levels and strongly suppressed the phosphorylation of Akt”; the “effect on Akt expression and phosphorylation” value is on record as “Akt levels were reduced but the phosphorylation was virtually eliminated”.

As for `CC[C@]1(O)C[C@@H]2CN(CCc3c([nH]c4ccccc34)[C@@](C(=O)OC)(c3cc4c(cc3OC)N(C)[C@H]3[C@@](O)(C(=O)OC)[C@H](OC(C)=O)[C@]5(CC)C=CCN6CC[C@]43[C@@H]65)C2)C1.O=S(=O)(O)O` [Vinblastine, vinblastine sulfate], the “effect on microtubule formation versus vehicle control” value in experiment [3] is reported as “strongly inhibited microtubule formation”.

`CC(=O)O[C@H]1C(=O)[C@@]2(C)[C@H]([C@H](OC(=O)c3ccccc3)[C@]3(O)C[C@H](OC(=O)[C@H](O)[C@@H](NC(=O)c4ccccc4)c4ccccc4)C(C)=C1C3(C)C)[C@]1(OC(C)=O)CO[C@@H]1C[C@@H]2O` [paclitaxel]: in experiment [3], the “effect on microtubule formation versus vehicle control” value is on record as “stabilized microtubules”.
